Data taken from PubChem BioAssay (NCI).
“And” between values parts separate entries of the source, which are not always exact repeats. Equal entries are not always repeated.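 Each compound was tested at five concentrations against cells in 96-well plates for 48 hours. GI50 marks 50% less growth. The concentration for full growth arrest is given as TGI.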

Columns and labels:
Assay in all cases: NCI anticancer screen, dose series, 48 h
MDA-MB-231 breast = system: MDA-MB-231 breast
IGROV1 ovarian = system: IGROV1 ovarian
K-562 leukemia = system: K-562 leukemia
OVCAR-5 ovarian = system: OVCAR-5 ovarian
M14 melanoma = system: M14 melanoma
UO-31 renal = system: UO-31 renal
NCI/ADR-RES ovarian = system: NCI/ADR-RES ovarian
HCT-116 colon = system: HCT-116 colon
SF-295 CNS = system: SF-295 CNS
SK-MEL-5 melanoma = system: SK-MEL-5 melanoma

Compound	GI50 (MDA-MB-231 breast)	TGI (MDA-MB-231 breast)	GI50 (IGROV1 ovarian)	TGI (IGROV1 ovarian)	GI50 (K-562 leukemia)	TGI (K-562 leukemia)	GI50 (OVCAR-5 ovarian)	TGI (OVCAR-5 ovarian)	GI50 (M14 melanoma)	TGI (M14 melanoma)	GI50 (UO-31 renal)	TGI (UO-31 renal)	GI50 (NCI/ADR-RES ovarian)	TGI (NCI/ADR-RES ovarian)	GI50 (HCT-116 colon)	TGI (HCT-116 colon)	GI50 (SF-295 CNS)	TGI (SF-295 CNS)	GI50 (SK-MEL-5 melanoma)	TGI (SK-MEL-5 melanoma)
O=C1NC(=O)C(c2c[nH]c3ccccc23)=C1c1ccccc1	> 25 µM	> 25 µM	> 25 µM	> 25 µM	> 25 µM	> 25 µM	> 25 µM	> 25 µM	> 25 µM	> 25 µM	> 24 µM	> 25 µM	> 25 µM	> 25 µM	> 25 µM	> 25 µM	> 25 µM	> 25 µM	> 25 µM	> 25 µM
O=c1[nH]c(SCc2ccccc2[N+](=O)[O-])nc2nc[nH]c12	> 100 µM and 40.8 µM	> 100 µM		> 100 µM		> 100 µM		> 100 µM		> 100 µM	> 100 µM and 35.1 µM	> 100 µM		> 100 µM		> 100 µM		> 100 µM		> 100 µM
O=C1/C(=C/c2ccccc2[N+](=O)[O-])COc2ccc(O)c(O)c21	0.799 µM	2.68 µM	0.73 µM	2.55 µM	0.428 µM	> 100 µM	1.69 µM	3.66 µM	0.797 µM	2.89 µM	0.295 µM	2.03 µM	1.23 µM	13.6 µM	0.297 µM	1.1 µM	3.26 µM	11.1 µM	1.53 µM	3.02 µM
Fc1ccc(C2C3CCOc4c(ccc5ccccc45)C3=NN2c2ccccc2)cc1 (configuration not stated)	43.8 µM	> 100 µM	> 100 µM	> 100 µM	49 µM	> 100 µM	> 100 µM	> 100 µM	> 100 µM	> 100 µM	> 100 µM	> 100 µM	> 100 µM	> 100 µM	> 86.2 µM	> 100 µM	20.7 µM	> 100 µM	71.4 µM	> 100 µM
C=C1C(=O)C2(C)OC2(C)C1C(=O)O (configuration not stated)		> 100 µM		> 100 µM		> 100 µM		> 100 µM		> 100 µM		> 100 µM		> 100 µM		> 100 µM		> 100 µM		> 100 µM
O=C(c1ccco1)c1c(C(F)(F)F)n([O-])c2ccc(F)cc2[n+]1=O	1.61 µM	3.44 µM	1.23 µM	2.78 µM	0.065 µM	0.219 µM	5.97 µM	17.5 µM	1.48 µM	2.93 µM	1.6 µM	3 µM	2.19 µM	5.59 µM	0.824 µM	2.41 µM	4.69 µM	17.9 µM	1.84 µM	5.88 µM
COc1ccc(/C=C2\CCC(Cc3ccccc3)(CN(C)C)C2=O)cc1 (configuration not stated)		> 100 µM		> 100 µM		78 µM		> 100 µM		66.2 µM		> 100 µM		> 100 µM		> 100 µM		> 100 µM		44.8 µM
CS(=O)(=O)N1CCc2c(-c3cnc(N)nc3)nc(N3CCOCC3)nc21	1.29 µM and 1.26 µM	> 10 µM and 23.4 µM	0.0868 µM and 0.0664 µM	0.443 µM and 0.485 µM	> 6.98 µM and 5.3 µM	> 100 µM	0.685 µM and 0.461 µM	> 62.6 µM	1.43 µM and 0.625 µM	> 41 µM	0.18 µM and 0.136 µM	3.14 µM and 3.03 µM	2.16 µM and 1.63 µM	> 100 µM	0.571 µM and 0.553 µM	> 100 µM	0.556 µM and 0.354 µM	3.91 µM and 3.29 µM	1.78 µM and 1.36 µM	> 30.7 µM
COc1cccc(/C=C\c2ccnc3ccccc23)c1		> 10 µM		> 10 µM		> 10 µM		> 10 µM		> 10 µM		> 10 µM		> 10 µM		> 10 µM		> 10 µM		> 10 µM
Cn1cc(C2=C(c3c(S(C)=O)n(C)c4ccccc34)C(=O)NC2=O)c2ccccc21 (configuration not stated)	12.9 µM	> 25 µM	10.8 µM	> 25 µM	8.89 µM	> 25 µM	> 25 µM	> 25 µM	7.56 µM	> 25 µM	3.89 µM	> 25 µM	9.19 µM	> 25 µM	8.57 µM	> 25 µM	5.93 µM	> 17.2 µM	6.96 µM	> 25 µM
CC(C)[C@H](C(=O)O[C@@H]1/C=C/C(=O)O[C@@H](C)CCC/C=C/[C@@H]2C[C@H](O)C[C@H]21)N(C)C	12.8 µM	51.9 µM	22.8 µM	> 71.3 µM	23.7 µM	58.1 µM	20.4 µM	> 89.5 µM	11.1 µM	> 63.8 µM	15 µM	> 83.7 µM	14.9 µM	> 87.8 µM	14.5 µM	37.2 µM	4.85 µM	25.1 µM	1.75 µM	3.44 µM
CCCCCCSc1nc(COC(=O)NC)c(COC(=O)NC)n1C		> 100 µM		> 100 µM		> 100 µM		> 100 µM		> 100 µM		> 100 µM		> 100 µM		> 100 µM		> 100 µM		> 100 µM
CCCc1n(Cc2ccc3ccccc3n2)cc[n+]1Cc1ccc2ccccc2n1	2.11 µM	8.47 µM	1.48 µM	15.1 µM	0.72 µM	15.9 µM	3.72 µM	34.2 µM	2.29 µM	13.5 µM	16.5 µM	73.9 µM	> 100 µM	> 100 µM	2.81 µM	13.1 µM	3.57 µM	15.7 µM	0.866 µM	2.36 µM
Cc1cc2c(cc1Cl)N1C(=O)NS(=O)(=O)N=C1NS2(=O)=O	> 100 µM	> 100 µM	> 100 µM	> 100 µM	> 100 µM	> 100 µM	> 100 µM	> 100 µM	> 100 µM	> 100 µM	> 100 µM	> 100 µM	> 100 µM	> 100 µM	> 100 µM	> 100 µM	> 100 µM	> 100 µM	> 100 µM	> 100 µM
COc1cc(/C=C/c2ccccn2)cc(OC)c1OC		> 10 µM		> 10 µM		> 10 µM		> 10 µM		> 10 µM		> 10 µM		> 10 µM		> 10 µM		> 10 µM		> 10 µM
